Six compounds from US9770026B2, “Substituted pyrimidine compound and uses thereof” (Shenyang Sinochem Agrochemicals R&D Co., Ltd., priority 2012, dated 2017) can be followed below.

Test [1] has as its system Diamond back moth. In words: insecticidal activity against diamond back moth, airbrush spray. It counts as in vivo. Put shortly:
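Airbrush leaf-disc spray test: both faces of 2 cm cabbage discs received 0.5 ml of test solution at 0.7 kg/cm^2. Solutions were made in acetone:methanol (1:1) and brought to concentration with 0.1% Tween 80 in water. Ten second-instar larvae per disc, triplicates, were held at 25° C and 60˜70% R.H., with mortality recorded at 72 hrs.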

Test [2] concerns armyworm. In words: bioactivity test against armyworm, airbrush spray. In kind it is in vivo. The following applies: for control (test results against armyworm): mortality after 72 h.
The test system of test [3] is Green peach aphids (Myzus Persicae Sulzer). Description: bioactivity test against green peach aphid, airbrush foliar spray. The following applies: for pest or weed control at 10 µg/mL / pest or weed control at 100 µg/mL / pest or weed control at 600 µg/mL / Insecticidal activity against peach aphid (%): contrastive test; for pest or weed control at 10 µg/mL / pest or weed control at 100 µg/mL / pest or weed control at 600 µg/mL: read-out: Insecticidal activity against peach aphid (%). It counts as in vivo. Summed up:
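Death rate was scored at 48 hrs, held at 25±1 C and 60±5% RH, following airbrush foliar spray (0.5 mL, 10 psi) onto cabbage leaf discs bearing about 15-30 aphids. Test solutions: compound dissolved in 1:1 acetone:methanol, brought to concentration with 0.1% tween 80 water.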

In test [4] the test system is carmine spider mite. Description: bioactivity test against carmine spider mite, airbrush spray. In kind it is in vivo. As to conditions: for pest or weed control at 100 µg/mL: 100 mg/L; for pest or weed control at 100 µg/mL / pest or weed control at 600 µg/mL / pest or weed control at 10 µg/mL: read-out: Insecticidal activity against carmine spider mite (% ); for pest or weed control at 10 µg/mL: 10 mg/L. Put shortly:
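Broadbean seedlings infested with adult mites were sprayed with compound (acetone/methanol stock diluted in 0.1% Tween 80 water) by airbrush at 0.7 kg/cm^2, 0.5 ml. Three replicates were run. Mortality was scored after 72 hrs.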

Test [5] has as its system corn rust. In words: protectant activity in vivo against corn rust. As to conditions: for pest or weed control at 6.25 µg/mL: read-out: control effect against corn rust (%), 6.25 mg/L; for pest or weed control at 25 µg/mL: read-out: control effect against corn rust (%), 25 mg/L; for pest or weed control at 100 µg/mL: read-out: control effect against corn rust (%), 100 mg/L; for pest or weed control at 400 µg/mL: read-out: control effect against corn rust (%), 400 mg/L.

The subject of test [6] is wheat powdery mildew. In words: protectant activity in vivo against wheat powdery mildew. As to conditions: for pest or weed control at 6.25 µg/mL: read-out: control effect against wheat powdery mildew (%), 6.25 mg/L; for pest or weed control at 25 µg/mL: read-out: control effect against wheat powdery mildew (%), 25 mg/L; for pest or weed control at 100 µg/mL: read-out: control effect against wheat powdery mildew (%), 100 mg/L; for pest or weed control at 400 µg/mL: read-out: control effect against wheat powdery mildew (%), 400 mg/L; for protectant activity against wheat powdery mildew in vivo: 400 ppm.

Test [7] has as its system cucumber downy mildew. In words: protectant activity in vivo against cucumber downy mildew. As to conditions: for control effect against cucumber downy mildew (%): protectant activity.
[8] abbreviates: 72 h, 600 mg/L, read-out: Insecticidal activity against armyworm (%).
The mark [9] stands for this setting: Myzus persicae, foliar, 48 h, 10 mg/L.
[10] abbreviates: Myzus persicae, foliar, 48 h, 100 mg/L.
[11] abbreviates: Myzus persicae, foliar, 48 h, 600 mg/L.
[12] abbreviates: Tetranychus cinnabarinus, 72 h, contrastive test.
Where [13] appears, read: Tetranychus cinnabarinus, 72 h, 600 mg/L, contrastive test.
Where [14] appears, read: Zea mays, 168 h, protectant activity.
Where [15] appears, read: Triticum aestivum, 168 h, protectant activity.
The mark [16] stands for this setting: 100 ppm, death rate after 48 hrs.
[17] abbreviates: 600 ppm, death rate after 48 hrs.
Setting [18] is: 100 ppm, mortality after 72 hrs.
Setting [19] is: 600 ppm, mortality after 72 hrs.

For `FC(F)(F)c1ccc(Oc2ccc(CCNc3ncnc4ccccc34)cc2)nc1` [CK12, reference compound], the pest or weed control at 10 µg/mL in test [1] (72 h, 10 mg/L) turned out to be 0%; in test [2] (72 h, 10 mg/L, read-out: Insecticidal activity against armyworm (%)), 0%; in test [3] (setting [9]), 73%. Also, the pest or weed control at 100 µg/mL in test [1] (72 h, 100 mg/L) is 35%; in test [2] (72 h, 100 mg/L, read-out: Insecticidal activity against armyworm (%)), 20%; in test [3] (setting [10]), 100%; in test [4] (setting [12]) it was 41%; in test [5] (setting [14]), 100%; in test [6] (setting [15]) it was 30%. Moreover, the pest or weed control at 600 µg/mL turned out to be 100% in test [1] (72 h, 600 mg/L); 86% in test [2] (setting [8]); 100% in test [3] (setting [11]); 100% in test [4] (setting [13]). Also, the figures for the pest or weed control at 6.25 µg/mL in test [5] (setting [14]) and in test [6] (setting [15]) were 75% and 0%, respectively. The pest or weed control at 25 µg/mL in test [5] (setting [14]) was 85%; in test [6] (setting [15]) it was 0%. Further, the results for the pest or weed control at 400 µg/mL in test [5] (setting [14]) and in test [6] (setting [15]) were 100% and 80%, respectively.
For `Cc1ncnc(NC(C)c2ccc(Oc3ccc(C(F)(F)F)cc3Cl)cc2)c1Cl` (centres unmarked) [CK30, reference compound], the pest or weed control at 600 µg/mL in test [1] (72 h, 600 mg/L) is 0%; in test [2] (setting [8]), 57%; in test [3] (setting [11]), 93%; in test [4] (setting [13]) it was 100%. The figures for the pest or weed control at 10 µg/mL in test [3] (setting [9]) and in test [4] (setting [12]) were 0% and 28%, respectively. Besides, the pest or weed control at 100 µg/mL stood at 50% in test [3] (setting [10]), 100% in test [4] (setting [12]), 0% in test [5] (setting [14]) and 80% in test [6] (setting [15]). For the same compound, the pest or weed control at 6.25 µg/mL in test [5] (setting [14]) and in test [6] (setting [15]) was 0% throughout. Besides, the figures for the pest or weed control at 25 µg/mL in test [5] (setting [14]) and in test [6] (setting [15]) were 0% and 20%, respectively. For the same compound, the pest or weed control at 400 µg/mL in test [5] (setting [14]) came out at 0%; in test [6] (setting [15]) it was 100%.
As for `CCc1ncnc(NCc2ccc(Oc3nc(Cl)c(Cl)cc3Cl)cc2)c1Cl` [CK36, reference compound], the pest or weed control at 10 µg/mL in test [1] (72 h, 10 mg/L) came to 0%; in test [3] (setting [9]) it was 0%. In addition, the pest or weed control at 100 µg/mL in test [1] (72 h, 100 mg/L) worked out at 0%; in test [3] (setting [10]), 14%; in test [5] (setting [14]) it was 60%; in test [6] (setting [15]), 80%. In addition, the pest or weed control at 600 µg/mL in test [1] (72 h, 600 mg/L) is 20%; in test [2] (setting [8]) it was 0%; in test [3] (setting [11]) it was 90%; in test [4] (setting [13]) it was 0%. Further, the pest or weed control at 6.25 µg/mL in test [5] (setting [14]) and in test [6] (setting [15]) was 0% throughout. Moreover, the pest or weed control at 25 µg/mL in test [5] (setting [14]) is 40%; in test [6] (setting [15]), 60%. In addition, the pest or weed control at 400 µg/mL in test [5] (setting [14]) and in test [6] (setting [15]) was 100% in each case.
In the case of `CC(Cl)c1ncnc(NCCc2ccc(Oc3ncc(C(F)(F)F)cc3Cl)cc2)c1Cl` (centres unmarked) [CK44, reference compound], the “Insecticidal activity against diamond back moth (%)” value worked out at 10% in test [1] (10 mg/L), 25% in test [1] (100 mg/L) and 80% in test [1] (600 mg/L). Moreover, the “Insecticidal activity against armyworm (%)” value in test [2] (600 mg/L) amounted to 0%. Further, the “Insecticidal activity against peach aphid (%)” value in test [3] (2.5 mg/L) was 0%; in test [3] (5 mg/L), 19%; in test [3] (10 mg/L), 35%; in test [3] (100 mg/L), 98%; in test [3] (600 mg/L), 100%. For the same compound, in test [4] (600 mg/L, contrastive test), the “Insecticidal activity against carmine spider mite (% )” value worked out at 0%. In addition, in test [5] (400 mg/L, protectant activity), the “control effect against corn rust (%)” value is on record as 85%. In test [6] (400 mg/L, protectant activity), the “control effect against wheat powdery mildew (%)” value was found to be 0%.
Turning to `Cc1ncnc(NCCc2ccc(Oc3ccc(C(F)(F)F)cn3)cc2)c1Cl` [Compound I-6729], the pest or weed control at 600 ppm turned out to be 100% in test [1] (72 h, 600 ppm, mortality after 72 hrs, read-out: control (test results against diamond back moth)) and 100% in test [4] (Tetranychus cinnabarinus, 72 h, 600 ppm, mortality after 72 hrs). The “control (test results against armyworm)” value in test [2] (600 ppm) was 100%. The “control (test results against green peach aphid)” value in test [3] (setting [16]) and in test [3] (setting [17]) was 100% throughout. Also, the pest or weed control at 10 ppm in test [3] (Myzus persicae, foliar, 48 h, 10 ppm, death rate after 48 hrs) came out at 100%. The “Insecticidal activity against carmine spider mite (% )” value in test [4] (2.5 mg/L) turned out to be 64%; in test [4] (5 mg/L), 78%. Moreover, the “control against carmine spider mite” value in test [4] (setting [18]) worked out at 100%. Further, the pest or weed control at 10 µg/mL in test [4] (setting [12]) came out at 87%. In test [4] (setting [12]), the pest or weed control at 100 µg/mL was 100%. Also, the pest or weed control at 600 µg/mL in test [4] (setting [13]) is 100%. Besides, the “protectant activity against corn rust in vivo” value in test [5] (25 ppm) and in test [5] (400 ppm) was 100% throughout. Also, the pest or weed control at 100 ppm in test [5] (Zea mays, 168 h, read-out: protectant activity against corn rust in vivo, 100 ppm) worked out at 100%; in test [6] (Triticum aestivum, 168 h, read-out: protectant activity against wheat powdery mildew in vivo, 100 ppm), 100%. Besides, the “protectant activity against wheat powdery mildew in vivo” value in test [6] is 100%.
Consider `CCc1ncnc(NCCc2ccc(Oc3ccc(Cl)cc3)nc2)c1Cl` [III-187], for which the “control (test results against diamond back moth)” value in test [1] (setting [19]) is given as 100%. Besides, the “Insecticidal activity against armyworm (%)” value in test [2] (10 mg/L) was found to be 95%; in test [2] (100 mg/L), 100%; in test [2] (600 mg/L), 100%. Also, the “control (test results against armyworm)” value in test [2] (100 ppm) and in test [2] (600 ppm) was 100% throughout. The “Insecticidal activity against peach aphid (%)” value in test [3] (10 mg/L), in test [3] (100 mg/L) and in test [3] (600 mg/L) was 100% in each case. Besides, the “control (test results against green peach aphid)” value in test [3] (10 ppm, death rate after 48 hrs) was found to be 100%; in test [3] (setting [16]), 100%; in test [3] (setting [17]), 100%. Also, the “control against carmine spider mite” value in test [4] (setting [18]) and in test [4] (setting [19]) was 100% throughout. The “protectant activity against wheat powdery mildew in vivo” value in test [6] was 100%. Besides, the “control effect against cucumber downy mildew (%)” value in test [7] (6.25 mg/L), in test [7] (12.5 mg/L), in test [7] (25 mg/L), in test [7] (50 mg/L), in test [7] (100 mg/L) and in test [7] (400 mg/L) was 100% in each case. Besides, the “protectant activity against cucumber downy mildew in vivo” value in test [7] (6.25 ppm), in test [7] (12.5 ppm), in test [7] (25 ppm), in test [7] (50 ppm), in test [7] (100 ppm) and in test [7] (400 ppm) was 100% each time.
